Measured values reported in PubChem BioAssay (NCI).
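Results reflect a 48-hour exposure of cells in 96-well plates to compound at five concentrations. At the TGI there is no net growth.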

Columns and labels:
Assay in all cases: growth of human tumour cells (NCI), 48 h
[1] = tested on: KM20L2 colon
[2] = tested on: DLD-1 colon
[3] = tested on: SNB-78 CNS
[4] = tested on: HOP-18 NSCLC
[5] = tested on: XF 498 CNS
[6] = tested on: M19-MEL melanoma

Measured: TGI

O=C(Nc1ccc(C(F)(F)F)cc1[N+](=O)[O-])C(=O)Nn1c(=S)[nH]c2ccccc2c1=O
> 100 µM: [1] | [2] | [3] | [4] | [5] | [6]
